Values after ≈ are worked out from the molar mass of the structure shown. Read-outs that look alike come from different tables or passages of the source.
Experiments:
[1] = physchem
[2] = water solubility experiments; assay type: physicochemical
[3] = test system: hot plate pain threshold in ICR mice; assay: hot plate method, compound 2, intravenous administration; assay type: in vivo; details: for Pain threshold before administration: baseline; for Pain threshold before administration / Pain threshold after administration: X ± SD
Procedure: (§1) 20 ICR mice, 18-22 g, half male and half male, were purchased from the animal room of Xi′an Jiaotong University School of Medicine; rearing conditions: room temperature 18-20° C., same-sex cages, 12-hour light, regular ventilation, conventional full-price solid feed feeding, and the bedding was changed every two days; 20 mice were randomly divided into 2 groups (low-dose test drug group, test drug high-dose group), 10 mice in each group (5 ♀95).
An appropriate amount of compound 2 was accurately weighed and dissolved in 5% glucose water to prepare a concentration of 2 mg/ml (dissolved state is good, basically transparent), which was utilized as a mother solution. During the test, according to the test requirements, it was diluted with 5% glucose aqueous solution to an appropriate concentration.
The first group was the high-dose test drug group, and the test drug was given 10 mg/kg by tail vein injection; the second group was the low-dose test drug group, and the test drug was given 3 mg/kg by tail vein injection.
(§2) The mice were placed in a hot plate apparatus at a temperature of 55±0.5° C., and the pain thresholds of the mice were measured and recorded before administration, 30 minutes after administration, 60 minutes after administration, and 120 minutes after administration.

[4] = test system: convulsions in mice induced by electrical stimulation; assay: anticonvulsant effect on mice induced by electrical stimulation; assay type: in vivo
Procedure: (1) Divide 40 mice (20♀20) into 5 groups at random, with 8 mice (4♀4) in each group, and label No. 1 to No. 8 with picric acid respectively; (2) All mice were tested according to the order of groups and labels electrical stimulation, the initial voltage was 40V, the voltage was increased by 2.5V each time, the time interval between two electrical stimulations for the same mouse was 20 min, the threshold voltage value of convulsion and the time from convulsion to complete recovery were recorded, and the dead mice were discarded, qualified mice were screened; (3) After screening, 7 mice (2♀5) in the 40 mice could not recover after convulsions and died, and the remaining 33 qualified mice […]; (4) From standby 7 mice were screened out as a supplement, and the number of the dead mice in step (2) was marked with picric acid and added to the corresponding groups, so that a total of 40 (20♀20) qualified mice in 5 groups were finally obtained., all mice were weighed and recorded.
Positive drug: sodium valproate (specification 0.2 g), take 1 tablet in a mortar, add 20 ml of 0.5% CMC-Na solution while grinding, to a suspended state, set EP tube for use; test drug (compound 5): Dissolve in distilled water to 5, 10, and 20 mg/ml solutions, respectively, and set EP tubes for later use.
Electrical stimulation was performed 1.5 hours after the last administration, and each mouse was given the threshold voltage measured before to observe the experimental phenomenon and record whether there was convulsions and death occurred.
The first group was the blank control group, which was given 0.4 ml/20 g of 0.5% CMC-Na by gavage; the second group was the positive drug control group, which was given sodium valproate 200 mg/kg by gavage; the third group was the test drug the low-dose group, which was given 100 mg/kg of compound 5 by gavage; the fourth group was the test drug medium-dose group, which was given 200 mg/kg of compound 5 by gavage; the fifth group was the test drug high-dose group, which was given 400 mg/kg of compound 5 by gavage.
1.5 h after the last administration, electrical stimulation was performed according to the threshold voltage measured before each mouse, the experimental phenomenon was observed, and the occurrence of convulsions and death were recorded. If convulsion occurs, record the time of complete recovery; if no convulsion occurs, continue to increase the voltage with a gradient of 2.5V to measure the current threshold voltage value and recovery time.
Strictly follow the 5 periods of convulsion in mice, namely, latency period, rigid flexion period, hindlimb extension period, clonic period and recovery period to judge whether the mice have convulsions after electrical stimulation, and the phenomenon of death can not be recovered after convulsions.

[5] = test system: hot plate pain threshold in mice; assay: hot plate method, compound 1, intragastric administration; assay type: in vivo; details: for Pain response time Before administration: baseline, n 10; for Pain response time Before administration / Pain response time After administration: X ± SD; for Pain response time After administration / Pain response time extension rate: 60 min after administration; for Pain response time extension rate: blank group 3.9 ± 6.6
Procedure: All the mice participating in the experiment were subjected to hot plate pain threshold detection before the experiment, and qualified mice with pain threshold of 10-40 s were screened.
Accurately weigh an appropriate amount of compound 1, dissolve it in distilled water and prepare a mother liquor of 100 mg/ml, then dilute to 1.25 mg/ml (25 mg/kg), 2.5 mg/ml (50 mg/kg) with double distilled water respectively; accurately weigh an appropriate amount of the positive control drug gabapentin, dissolve in distilled water and prepare a 100 mg/ml mother solution, and then dilute to 10 mg/ml (200 mg/kg) with double distilled water. All medicines are prepared and utilized as needed.
40 only qualified mice were divided into 4 groups, half male and half female in each group. The first group is the blank group, no administration; the second group is the positive control (gabapentin) 25 mg/kg group; the third group is the test drug 25 mg/kg group; the fourth group is the test drug 50 mg/kg group 4. All were administered by gavage.
The mice were placed in a hot plate apparatus at a temperature of 55±0.5° C., and the pain thresholds of the mice were measured and recorded before administration and 60 min after administration.

[6] = test system: hot plate pain threshold in ICR mice; assay: hot plate method, compound 1, intravenous administration; assay type: in vivo; details: for Pain threshold before administration: baseline; for Pain threshold before administration / Pain threshold after administration: X ± SD
Procedure: as §1, with “same sex rearing in separate” for “same-sex”, “feeding,” for “feeding, and the”, “bedding” for “bedding was”, “group) with” for “group),”, “♀5).” for “♀95).”
An appropriate amount of compound 1 was accurately weighed and dissolved in 0.9% physiological saline to prepare a concentration of 5 mg/ml (dissolved state is good, basically transparent), which was used as a mother solution. During the test, according to the test requirements, diluted with normal saline to an appropriate concentration.
The first group was the low-dose test drug group, and the test drug was given 10 mg/kg by tail vein injection; the second group was the test drug high-dose group, and the test drug was given 15 mg/kg by tail vein injection.
as §2

[7] = 10 mg/kg tail vein group, hot plate 55±0.5° C.

In the case of `CC(C)c1cccc(C(C)C)c1OC(=O)CC1(C[N+](C)(C)C)CCCCC1` [Compound 6, (1-(2-(2,6-diisopropylphenoxy)-2-oxoethyl)cyclohexyl)-N,N,N-tri-methylmethanaminium iodide], the logP ([1]; fat/water partition (phases not further specified)) is reported as 1.54 and the solubility [2] is reported as 900 µg/mL.
With `CC(C)c1cc(I)cc(C(C)C)c1OC(=O)CC1(CN)CCCCC1.Cl` [Compound 2, 4-iodo-2,6-diisopropylphenyl 2-(1-(aminomethyl)cyclohexyl)acetate hydrochloride] the logP [1] was 1.66, the “Pain threshold before administration” value ([3]; 3 mg/kg tail vein group) was 11.33 ± 4.08 s and the “Pain threshold after administration” value ([3]; 3 mg/kg tail vein, 30 min) was 12.41 ± 3.67 s. For the same compound, the “Pain threshold after administration” value ([3]; 3 mg/kg tail vein, 60 min) was 10.16 ± 3.38 s, the “Pain threshold after administration” value ([3]; 3 mg/kg tail vein, 120 min) was 6.47 ± 5.40 s and the “Pain threshold before administration” value [3, 7] was 13.18 ± 3.33 s. For the same compound, the “Pain threshold after administration” value ([3]; 10 mg/kg tail vein, 30 min) was 18.10 ± 5.96 s, the “Pain threshold after administration” value ([3]; 10 mg/kg tail vein, 60 min) was 13.98 ± 6.78 s and the “Pain threshold after administration” value ([3]; 10 mg/kg tail vein, 120 min) was 14.18 ± 6.90 s. For the same compound, the “analgesic effect in the hot plate test” value ([3]; intravenous, at 10 mg/kg performed well 30 minutes after injection) was “good analgesic effect” and the solubility [2] was 13000 µg/mL.
For `CCCC(CCC)C(=O)[O-].[Na+]` [sodium valproate, reference compound], the “anti-electrical convulsion ability (threshold voltage increase)” value ([4]; compared with blank group, sodium valproate 200 mg/kg gavage, 1.5 h after last administration, p<0.05) was “significantly improve” and the “weight gain of mice” value ([4]; mouse, in vivo) was “no difference”.
For `CC(C)c1cccc(C(C)C)c1OC(=O)CC1(CN)CCCCC1.Cl` [Compound 1, 2,6-diisopropylphenyl 2-(1-(aminomethyl)cyclohexyl)acetate hydrochloride], the logP [1] was 1.1, the “Pain response time Before administration” value ([5]; 25 mg/kg gavage group) was 22.0 ± 10.2 s and the “Pain response time After administration” value ([5]; 25 mg/kg gavage) was 32.1 ± 14.5 s. The “Pain response time extension rate” value ([5]; 25 mg/kg gavage) was 59.3 ± 66.7 %, the “Pain response time Before administration” value ([5]; 50 mg/kg gavage group) was 20.0 ± 5.9 s and the “Pain response time After administration” value ([5]; 50 mg/kg gavage) was 40.2 ± 17.9 s. For the same compound, the “Pain response time extension rate” value ([5]; 50 mg/kg gavage) was 100.0 ± 91.1 %, the “analgesic effect, hot plate, gavage” value ([5]; 25 and 50 mg/kg gavage, comparable to gabapentin) was “can prolong the reaction time of hot plate pain” and the “Pain threshold before administration” value [6, 7] was 8.92 ± 3.05 s. For the same compound, the “Pain threshold after administration” value ([6]; 10 mg/kg tail vein, 30 min) was 17.09 ± 6.05 s, the “Pain threshold after administration” value ([6]; 10 mg/kg tail vein, 60 min) was 16.96 ± 6.13 s and the “Pain threshold after administration” value ([6]; 10 mg/kg tail vein, 120 min) was 12.36 ± 5.75 s. For the same compound, the “Pain threshold before administration” value ([6]; 15 mg/kg tail vein group) was 10.90 ± 3.72 s, the “Pain threshold after administration” value ([6]; 15 mg/kg tail vein, 30 min) was 18.88 ± 6.06 s and the “Pain threshold after administration” value ([6]; 15 mg/kg tail vein, 60 min) was 13.49 ± 6.53 s. The “Pain threshold after administration” value ([6]; 15 mg/kg tail vein, 120 min) was 6.47 ± 5.40 s, the “analgesic effect in the hot plate test” value ([6]; intravenous 10 and 15 mg/kg, 10 mg/kg best, good within 30-60 minutes after injection) was “good analgesic effect” and the solubility [2] was 18000 µg/mL.
For `CC(C)c1cccc(C(C)C)c1OC(=O)NCC1(CC(=O)O)CCCCC1` [Compound 3], the logP [1] was 2.38 and the solubility [2] was 80 µg/mL (≈ 213 µM).
`CC(C)c1cc(I)cc(C(C)C)c1OC(=O)NCC1(CC(=O)O)CCCCC1` [Compound 4] showed a logP [1] of 3.52 and a solubility [2] of 40 µg/mL (≈ 79.8 µM).

Source: patent US20250082760A1 (priority 2020, published 2025)
